Reference: patent publication US20260071220A1, “CONJUGATE OF NUCLEOTIDE ANALOG-CONTAINING DOUBLE-STRANDED RNAI ANALOG” (BaseCure Therapeutics LLC, priority 2022, published 2026)
In the oligonucleotide strings, read from the 5' end, every base follows the letter of its sugar. An asterisk marks phosphorothioate; unmarked linkages are phosphodiester. Other units and linkages are bracketed, terminal groups are in braces. A string of capitals states the bases alone. {D01} = GalNAc ligand D01, attached to sense strand by a phosphodiester bond; m = 2'-O-methyl; f = 2'-fluoro

Columns and labels:
hTLR7 = molecular target: T1, hTLR7 (Homo sapiens, UniProt Q9NYK1); assay: Agonistic activity on hTLR7 cells (HEK BLUE, QUANTI-Blue OD650); format: cell-based; conditions: 24 h, transfection with RNAiMAX, maximum concentration 200 nM
T1 construct: host or cells: HEK BLUE hTLR7 (HEK293-derived SEAP reporter line)
T1 sequence (Q9NYK1 27-1049): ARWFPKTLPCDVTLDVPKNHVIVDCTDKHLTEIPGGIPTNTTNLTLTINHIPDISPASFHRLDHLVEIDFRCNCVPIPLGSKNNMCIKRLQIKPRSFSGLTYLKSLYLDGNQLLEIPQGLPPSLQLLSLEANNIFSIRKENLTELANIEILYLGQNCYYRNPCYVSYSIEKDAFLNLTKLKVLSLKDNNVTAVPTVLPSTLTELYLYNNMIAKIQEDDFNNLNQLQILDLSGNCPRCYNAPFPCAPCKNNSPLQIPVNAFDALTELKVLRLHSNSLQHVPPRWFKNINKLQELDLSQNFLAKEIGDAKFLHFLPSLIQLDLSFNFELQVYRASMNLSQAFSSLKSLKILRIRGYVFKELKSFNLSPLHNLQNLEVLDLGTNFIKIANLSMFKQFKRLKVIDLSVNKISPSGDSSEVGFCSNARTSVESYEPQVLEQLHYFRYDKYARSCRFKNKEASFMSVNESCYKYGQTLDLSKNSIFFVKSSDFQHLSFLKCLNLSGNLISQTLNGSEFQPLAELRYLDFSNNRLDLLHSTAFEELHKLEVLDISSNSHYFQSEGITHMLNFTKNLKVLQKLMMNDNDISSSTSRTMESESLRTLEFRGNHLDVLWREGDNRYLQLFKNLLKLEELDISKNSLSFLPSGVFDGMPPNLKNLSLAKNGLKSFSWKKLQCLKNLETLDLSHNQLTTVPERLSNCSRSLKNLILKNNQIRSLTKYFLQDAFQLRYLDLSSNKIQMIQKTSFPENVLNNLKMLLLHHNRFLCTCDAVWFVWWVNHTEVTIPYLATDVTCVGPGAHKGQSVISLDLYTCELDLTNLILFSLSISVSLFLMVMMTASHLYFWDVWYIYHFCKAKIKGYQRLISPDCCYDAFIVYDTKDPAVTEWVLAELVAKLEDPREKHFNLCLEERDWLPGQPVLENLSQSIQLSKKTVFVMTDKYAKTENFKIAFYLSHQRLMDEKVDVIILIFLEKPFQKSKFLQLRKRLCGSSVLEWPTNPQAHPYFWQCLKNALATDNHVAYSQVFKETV
Protocol: (§1) 1) The conjugate of the present invention was diluted to a concentration that was 20 times a final concentration, the diluted conjugate was mixed with RNAiMAX-OPTI MEM (RNAiMAX:OPTI MEM=3:47) at a ratio of 1:1 and incubated for 15 min at room temperature.
(§2) 2) 10 μL of incubated conjugate of the present invention was added into a corresponding cell plate, with 10 concentrations in total, a maximum concentration being 200 nM, and double duplicated wells for each concentration.
(§3) 10 μL of 0.5 μM BLOCK-iT™ Alexa Fluor® Red Fluorescent Control was added into 2 transfection positive control wells.
(§4) 4) 90 μL of cells were seeded into a 96-well plate with the conjugate at the density of 50,000 cells/well. […]
(§5) 7) Compound activity detection: 20 μL of cell supernatant was taken from each well and added into an experimental plate containing 180 μL of QUANTI-Blue™ reagent and then incubated for 1 h at 37° C., followed by detecting an absorbance values at 650 nm (OD650) using the multifunctional microplate reader Flexstation III.
(§6) Compound activity: the OD650 values were analyzed using GraphPad Prism software, and a dose effect curve of the compound was fit, and the EC50 value of the compound was calculated. […] The cell activity % value was analyzed using GraphPadPrism software, the dose effect curve of the compound was fit, and the CC50 value of the compound on cell was calculated.

hTLR8 = molecular target: T2, hTLR8 (Homo sapiens, UniProt Q9NR97); assay: Agonistic activity on hTLR8 cells (HEK BLUE, QUANTI-Blue OD650); format: cell-based; conditions: 24 h, transfection with RNAiMAX, maximum concentration 200 nM
T2 construct: host or cells: HEK BLUE hTLR8 (HEK293-derived SEAP reporter line)
T2 sequence (Q9NR97 27-1041): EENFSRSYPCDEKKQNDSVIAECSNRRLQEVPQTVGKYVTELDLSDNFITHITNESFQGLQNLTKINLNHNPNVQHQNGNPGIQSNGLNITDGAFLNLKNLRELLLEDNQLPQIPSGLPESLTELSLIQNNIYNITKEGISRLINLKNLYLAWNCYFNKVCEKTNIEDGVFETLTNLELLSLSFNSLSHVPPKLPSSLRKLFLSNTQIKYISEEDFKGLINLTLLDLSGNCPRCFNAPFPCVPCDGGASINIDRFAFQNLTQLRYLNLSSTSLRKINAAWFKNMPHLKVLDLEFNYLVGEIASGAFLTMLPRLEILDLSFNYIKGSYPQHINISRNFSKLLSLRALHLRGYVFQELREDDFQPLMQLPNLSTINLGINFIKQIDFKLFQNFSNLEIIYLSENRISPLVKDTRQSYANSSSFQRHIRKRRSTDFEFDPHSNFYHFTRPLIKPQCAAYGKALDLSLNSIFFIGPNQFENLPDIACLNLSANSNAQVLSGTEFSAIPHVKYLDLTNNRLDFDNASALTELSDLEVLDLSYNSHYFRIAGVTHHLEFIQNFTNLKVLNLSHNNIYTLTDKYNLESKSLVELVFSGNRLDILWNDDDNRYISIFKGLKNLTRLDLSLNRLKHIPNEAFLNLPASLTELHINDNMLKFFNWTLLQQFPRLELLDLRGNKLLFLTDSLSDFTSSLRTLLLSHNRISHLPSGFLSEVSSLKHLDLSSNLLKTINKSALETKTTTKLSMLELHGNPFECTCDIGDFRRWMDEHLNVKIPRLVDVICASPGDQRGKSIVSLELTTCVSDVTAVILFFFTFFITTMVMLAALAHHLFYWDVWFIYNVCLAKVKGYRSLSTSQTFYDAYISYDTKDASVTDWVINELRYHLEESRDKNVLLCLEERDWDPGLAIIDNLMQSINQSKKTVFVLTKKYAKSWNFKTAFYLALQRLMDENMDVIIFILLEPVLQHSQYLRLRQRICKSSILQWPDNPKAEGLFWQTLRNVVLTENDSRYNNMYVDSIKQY
Protocol: as §1, §2, §3, §4, §5, §6

HEK BLUE hTLR7 = assay: Cell activity detection (CellTiter-Glo) in hTLR7 cells; format: cell-based, human; conditions: 24 h, maximum concentration 200 nM, read-out: CC50
Protocol: as §1, §2
4) 90 μL of cells were seeded into a 96-well plate with the conjugate at the density of 50,000 cells/well.
5) The conjugate of the present invention and the cells were co-incubated for 24 h in an incubator under the conditions of 37° C. and 5% CO2.
8) Cell activity detection: the operation was carried out according to the method in the Celltiter-Glo specification, and a chemiluminescence signals (RLU) were detected using the multifunctional microplate reader Flexstation III.
Compound activity: the OD650 values were analyzed using GraphPad Prism software, and a dose effect curve of the compound was fit, and the EC50 value of the compound was calculated. Cell activity detection: the calculation formula of cell activity % was as follows. The cell activity % value was analyzed using GraphPadPrism software, the dose effect curve of the compound was fit, and the CC50 value of the compound on cell was calculated.

Conjugate 2: Double-stranded RNAi analog against AGT, D01 GalNAc ligand on sense strand; sense SEQ ID NO: 6, antisense SEQ ID NO: 2 containing Z (sense mA*mU*fCfCmAfCfAfAmUmGmAmGmAfGmUmAmCmA-{D01}; antisense CUCACAUGUACNCUCAUUGUGGAUGACGA; antisense: chemistry not given here; antisense strand modified, includes nucleotide analog Z, further chemistry not fully specified)
> 200 nM: EC50 (hTLR7) | EC50 (hTLR8) | CC50 (HEK BLUE hTLR7)

Conjugate 3: Double-stranded RNAi analog against AGT, D01 GalNAc ligand on sense strand; sense SEQ ID NO: 7, antisense SEQ ID NO: 2 containing Z (sense mA*mU*fCfCmAfCfAfAmUmGmAfGmAmGmUmAmCmA-{D01}; antisense CUCACAUGUACNCUCAUUGUGGAUGACGA; antisense: chemistry not given here; antisense strand modified, includes nucleotide analog Z, further chemistry not fully specified)
> 200 nM: EC50 (hTLR7) | EC50 (hTLR8) | CC50 (HEK BLUE hTLR7)
